Measurements taken from patent US10597388B2, “Pyridazinone herbicides” (FMC CORPORATION, priority 2014, dated 2020).

Tests used:
Type in all cases: in vivo
[1] = test system: barnyardgrass (Echinochloa crus-galli); experiment: Test A greenhouse herbicide test, pre- and postemergence
In short: (§1)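 Seeds sown in loam–sand blend got a preemergence directed soil spray of compound in non-phytotoxic solvent with surfactant. Postemergence treatment was given at 2–10 cm, one- to two-leaf stage. After ~10 d in greenhouse, injury was rated visually vs untreated controls, 0 (no effect) to 100 (complete control).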

corn (Zea mays) = experiment: as above; settings: Postemergence; for Corn plant response rating: 0 is no effect, 100 is complete control
In short: as §1

[2] = test system: foxtail, giant (giant foxtail, Setaria faberii); experiment: as above
In short: as §1

kochia (Kochia scoparia) = experiment: as above
In short: as §1

[3] = test system: pigweed (Amaranthus retroflexus); experiment: as above
In short: as §1

[4] = test system: ragweed (common ragweed, Ambrosia elatior); experiment: as above
In short: as §1

[5] = test system: ryegrass, Italian (Italian ryegrass, Lolium multiflorum); experiment: as above
In short: as §1

[6] = test system: wheat (Triticum aestivum); experiment: as above; settings: Postemergence; for Wheat plant response rating: 0 is no effect, 100 is complete control
In short: as §1

[7] = test system: blackgrass (Alopecurus myosuroides); experiment: Test A greenhouse herbicide test, postemergence; settings: for Blackgrass plant response rating: 0 is no effect, 100 is complete control
In short: (§2)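 Plants grown in loam soil/sand blend pots were treated postemergence at 2 to 10 cm height, one- to two-leaf stage, with formulated test chemicals. After approximately 10 d in a greenhouse, injury was rated visually against untreated controls on a 0 to 100 scale (0 no effect, 100 complete control).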

[8] = test system: galium (catchweed bedstraw, Galium aparine); experiment: Test A greenhouse herbicide test, postemergence; settings: for Galium plant response rating: 0 is no effect, 100 is complete control
In short: as §2

[9] = test system: barnyardgrass (Echinochloa crus-galli); experiment: Test B flooded paddy test; settings: 250 g ai/ha, Flood; visual rating on scale of 0 to 100 where 0 is no effect and 100 is complete control; 13 to 15 d after treatment
In short: (§3)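 Plants at the 2-leaf stage were flooded to 3 cm above soil, and test compounds were applied directly into the paddy water, which was held at that depth throughout. After 13 to 15 d in a greenhouse, injury was rated visually against untreated controls on a 0–100 scale (0 no effect, 100 complete control).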

[10] = test system: ducksalad (Heteranthera limosa); experiment: Test B flooded paddy test; settings: 250 g ai/ha, Flood; visual rating on scale of 0 to 100 where 0 is no effect and 100 is complete control; 13 to 15 d after treatment
In short: as §3

rice (Oryza sativa) = experiment: Test B flooded paddy test; settings: 250 g ai/ha, Flood; visual rating on scale of 0 to 100 where 0 is no effect and 100 is complete control; 13 to 15 d after treatment
In short: as §3

[11] = test system: sedge, umbrella (small-flower umbrella sedge, Cyperus difformis); experiment: Test B flooded paddy test; settings: 250 g ai/ha, Flood; visual rating on scale of 0 to 100 where 0 is no effect and 100 is complete control; 13 to 15 d after treatment
In short: as §3

[12] = Postemergence, 125 g ai/ha, 0 to 100 scale, 0 no effect, 100 complete control
[13] = Postemergence, 500 g ai/ha, visual rating after approx. 10 d, 0 to 100 scale (0 no effect, 100 complete control)
[14] = Preemergence, 125 g ai/ha, visual injury rating, 0 to 100 scale (0 no effect, 100 complete control), approx. 10 d
[15] = Preemergence, 500 g ai/ha, 0 to 100 scale where 0 is no effect and 100 is complete control
[16] = 125 g ai/ha, 0 to 100 scale, 0 no effect, 100 complete control
[17] = 500 g ai/ha, visual rating after approx. 10 d, 0 to 100 scale (0 no effect, 100 complete control)
[18] = Postemergence, 1000 g ai/ha, 0 to 100 scale, 0 is no effect, 100 is complete control
[19] = Preemergence, 1000 g ai/ha, 0 to 100 scale, 0 no effect, 100 complete control
[20] = Postemergence, 125 g ai/ha, 0 to 100 scale where 0 is no effect and 100 is complete control
[21] = Postemergence, 500 g ai/ha, 0 to 100 scale, 0 is no effect, 100 is complete control
[22] = Preemergence, 125 g ai/ha, 0 to 100 scale where 0 is no effect and 100 is complete control
[23] = Preemergence, 500 g ai/ha, 0 to 100 scale, 0 no effect, 100 complete control
[24] = 125 g ai/ha, 0 to 100 scale where 0 is no effect and 100 is complete control
[25] = Postemergence, 125 g ai/ha, visual rating after approx. 10 d, 0 to 100 scale (0 no effect, 100 complete control)
[26] = 125 g ai/ha, visual rating after approx. 10 d, 0 to 100 scale (0 no effect, 100 complete control)

CCC(=O)Oc1c(Br)nn(C)c(=O)c1-c1c(C)ccc2ccccc12 [Compound 156]
Plant response rating, Barnyardgrass [1, 12]: 70
Plant response rating, Barnyardgrass [1, 13]: 90
Plant response rating, Barnyardgrass [1, 14]: 70
Plant response rating, Barnyardgrass [1, 15]: 100
Plant response rating, Corn (corn (Zea mays); [16]): 0
Plant response rating, Corn (corn (Zea mays); [17]): 30
Plant response rating, Foxtail, Giant [2, 12]: 90
Plant response rating, Foxtail, Giant [2, 13]: 90
Plant response rating, Foxtail, Giant [2, 14]: 80
Plant response rating, Foxtail, Giant [2, 15]: 90
Plant response rating, Kochia (kochia (Kochia scoparia); [12]): 80
Plant response rating, Kochia (kochia (Kochia scoparia); [13]): 100
Plant response rating, Kochia (kochia (Kochia scoparia); [14]): 50
Plant response rating, Kochia (kochia (Kochia scoparia); [15]): 100
Plant response rating, Pigweed [3, 12]: 90
Plant response rating, Pigweed [3, 13]: 100
Plant response rating, Pigweed [3, 14]: 100
Plant response rating, Pigweed [3, 15]: 100
Plant response rating, Ragweed [4, 12]: 90
Plant response rating, Ragweed [4, 13]: 100
Plant response rating, Ragweed [4, 14]: 90
Plant response rating, Ragweed [4, 15]: 90
Plant response rating, Ryegrass, Italian [5, 12]: 90
Plant response rating, Ryegrass, Italian [5, 13]: 100
Plant response rating, Ryegrass, Italian [5, 14]: 90
Plant response rating, Ryegrass, Italian [5, 15]: 100
Plant response rating, Wheat [6, 16]: 30
Plant response rating, Wheat [6, 17]: 60
Plant response rating, Blackgrass [7, 16]: 60
Plant response rating, Blackgrass [7, 17]: 90
Plant response rating, Galium [8, 16]: 100
Plant response rating, Galium [8, 17]: 100
Plant response rating, Barnyardgrass [9]: 0
Plant response rating, Ducksalad [10]: 60
Plant response rating, Rice (rice (Oryza sativa)): 0
Plant response rating, Sedge, Umbrella [11]: 75

C#CCOc1c(C)nn(C)c(=O)c1-c1cccc2ccccc12 [Compound 179]
Barnyardgrass plant response rating [1, 18]: 10
Plant response rating, Barnyardgrass [1, 19]: 0
Corn plant response rating (corn (Zea mays); 1000 g ai/ha, 0 to 100 scale): 10
Foxtail, Giant plant response rating [2, 18]: 10
Plant response rating, Foxtail, Giant [2, 19]: 30
Kochia plant response rating (kochia (Kochia scoparia); [18]): 10
Plant response rating, Kochia (kochia (Kochia scoparia); [19]): 30
Pigweed plant response rating [3, 18]: 0
Plant response rating, Pigweed [3, 19]: 80
Ragweed plant response rating [4, 18]: 40
Plant response rating, Ragweed [4, 19]: 50
Ryegrass, Italian plant response rating [5, 18]: 70
Plant response rating, Ryegrass, Italian [5, 19]: 30
Wheat plant response rating ([6]; 1000 g ai/ha, 0 to 100 scale): 0
Blackgrass plant response rating ([7]; 1000 g ai/ha, 0 to 100 scale): 40
Galium plant response rating ([8]; 1000 g ai/ha, 0 to 100 scale): 90
Plant response rating, Barnyardgrass [9]: 0
Plant response rating, Ducksalad [10]: 0
Plant response rating, Rice (rice (Oryza sativa)): 0
Plant response rating, Sedge, Umbrella [11]: 0

Cn1ncc(O)c(-c2cccc3ccccc23)c1=O [Compound 49]
Plant response rating, Barnyardgrass [1, 20]: 0
Barnyardgrass plant response rating [1, 21]: 20
Barnyardgrass plant response rating [1, 22]: 0
Plant response rating, Barnyardgrass [1, 23]: 0
Plant response rating, Corn (corn (Zea mays); [24]): 0
Corn plant response rating (corn (Zea mays); 500 g ai/ha, 0 to 100 scale): 0
Plant response rating, Foxtail, Giant [2, 20]: 0
Foxtail, Giant plant response rating [2, 21]: 20
Foxtail, Giant plant response rating [2, 22]: 0
Plant response rating, Foxtail, Giant [2, 23]: 10
Plant response rating, Kochia (kochia (Kochia scoparia); [20]): 0
Kochia plant response rating (kochia (Kochia scoparia); [21]): 10
Kochia plant response rating (kochia (Kochia scoparia); [22]): 0
Plant response rating, Kochia (kochia (Kochia scoparia); [23]): 0
Plant response rating, Pigweed [3, 20]: 20
Pigweed plant response rating [3, 21]: 40
Pigweed plant response rating [3, 22]: 0
Plant response rating, Pigweed [3, 23]: 40
Plant response rating, Ragweed [4, 20]: 0
Ragweed plant response rating [4, 21]: 10
Ragweed plant response rating [4, 22]: 0
Plant response rating, Ragweed [4, 23]: 10
Plant response rating, Ryegrass, Italian [5, 20]: 30
Ryegrass, Italian plant response rating [5, 21]: 50
Ryegrass, Italian plant response rating [5, 22]: 0
Plant response rating, Ryegrass, Italian [5, 23]: 30
Plant response rating, Wheat [6, 24]: 0
Wheat plant response rating ([6]; 500 g ai/ha, 0 to 100 scale): 0
Plant response rating, Blackgrass [7, 24]: 10
Blackgrass plant response rating ([7]; 500 g ai/ha, 0 to 100 scale): 30
Plant response rating, Galium [8, 24]: 50
Galium plant response rating ([8]; 500 g ai/ha, 0 to 100 scale): 80
Plant response rating, Barnyardgrass [9]: 0
Plant response rating, Ducksalad [10]: 0
Plant response rating, Rice (rice (Oryza sativa)): 0
Plant response rating, Sedge, Umbrella [11]: 0

Cn1ncc(O)c(-c2ccc(F)c3ccccc23)c1=O [Compound 24]
Plant response rating, Barnyardgrass [1, 25]: 40
Barnyardgrass plant response rating [1, 21]: 50
Barnyardgrass plant response rating [1, 22]: 30
Plant response rating, Barnyardgrass [1, 23]: 60
Plant response rating, Corn (corn (Zea mays); [26]): 0
Corn plant response rating (corn (Zea mays); 500 g ai/ha, 0 to 100 scale): 0
Plant response rating, Foxtail, Giant [2, 25]: 10
Foxtail, Giant plant response rating [2, 21]: 60
Foxtail, Giant plant response rating [2, 22]: 60
Plant response rating, Foxtail, Giant [2, 23]: 80
Plant response rating, Kochia (kochia (Kochia scoparia); [25]): 70
Kochia plant response rating (kochia (Kochia scoparia); [21]): 80
Kochia plant response rating (kochia (Kochia scoparia); [22]): 30
Plant response rating, Kochia (kochia (Kochia scoparia); [23]): 50
Plant response rating, Pigweed [3, 25]: 70
Pigweed plant response rating [3, 21]: 90
Pigweed plant response rating [3, 22]: 70
Plant response rating, Pigweed [3, 23]: 90
Plant response rating, Ragweed [4, 25]: 30
Ragweed plant response rating [4, 21]: 60
Ragweed plant response rating [4, 22]: 0
Plant response rating, Ragweed [4, 23]: 0
Plant response rating, Ryegrass, Italian [5, 20]: 70
Ryegrass, Italian plant response rating [5, 21]: 90
Ryegrass, Italian plant response rating [5, 22]: 80
Plant response rating, Ryegrass, Italian [5, 23]: 80
Plant response rating, Wheat [6, 24]: 30
Wheat plant response rating ([6]; 500 g ai/ha, 0 to 100 scale): 70
Plant response rating, Blackgrass [7, 26]: 30
Blackgrass plant response rating ([7]; 500 g ai/ha, 0 to 100 scale): 50
Plant response rating, Galium [8, 26]: 80
Galium plant response rating ([8]; 500 g ai/ha, 0 to 100 scale): 100
Plant response rating, Barnyardgrass [9]: 0
Plant response rating, Ducksalad [10]: 0
Plant response rating, Rice (rice (Oryza sativa)): 0
Plant response rating, Sedge, Umbrella [11]: 0
